The values below come from ChEMBL document CHEMBL1201862, “PubChem BioAssay data set” (2004).

Test systems include UO-31; KM12; K562; LOX IMVI; UACC-257; U-251; SR; A498; HCT-15; NCI-H522; TK-10; MCF7; HL-60; CAKI-1; SNB-19; RPMI-8226; OVCAR-4; MOLT-4; COLO 205; MDA-N.
Test in all cases: NCI tumour cell line growth inhibition, 48 h

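These data come from cells grown in 96-well plates and exposed to compound for 48 hours at five concentrations. GI50 = concentration required for 50% inhibition of growth.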 The source made the active and inactive calls. Rule as the data show it: active = GI50 up to about 1.1 µM and inactive = higher. Square brackets hold non-standard residues; d marks the D form. Peptide text beside a SMILES is read from it.

`CC1=C(N2CC2)C(=O)C(CO)=C(N2CC2)C1=O`: the GI50 was 0.0101 µM (active) in the assay with UO-31; 0.0227 µM (active) in the assay on KM12; 0.0186 µM (active) in the assay on K562; < 0.01 µM (active) with LOX IMVI; 0.0923 µM (active) in the assay on UACC-257; 0.0141 µM (active) in the assay on U-251. The GI50 is < 0.01 µM (active) with SR; 0.0575 µM (active) in the assay on A498; 0.0151 µM with HCT-15; 0.013 µM (active) in the assay with NCI-H522; 0.0258 µM (active) with TK-10; 0.0106 µM (active) in the assay with MCF7. Moreover, the GI50 in the assay with HL-60 is < 0.01 µM (active); in the assay with CAKI-1, < 0.01 µM (active); in the assay with SNB-19, 0.0927 µM (active); in the assay with RPMI-8226, < 0.0142 µM (active); with OVCAR-4, 0.103 µM (active); in the assay on MOLT-4 it was 0.0129 µM (active).

As to `CCS(=O)(=O)Nc1ccc(Nc2c3ccccc3nc3ccccc23)c(OC)c1`, the GI50 was 2.22 µM (inactive) in the assay with COLO 205; 0.397 µM (active) in the assay with UO-31; 1.75 µM (inactive) in the assay on KM12; 0.681 µM (active) in the assay on K562; 0.275 µM (active) with LOX IMVI; 2.6 µM (inactive) in the assay with UACC-257. The GI50 is 0.158 µM (active) in the assay with U-251; 0.24 µM (active) in the assay with A498; 0.682 µM with HCT-15; 1.2 µM (inactive) in the assay with NCI-H522; 0.0984 µM (active) with MCF7; 0.0168 µM (active) in the assay on HL-60. Further, the GI50 with CAKI-1 is 0.0962 µM (active); in the assay with SNB-19, 0.273 µM (active); with RPMI-8226 it was 0.28 µM (active); with OVCAR-4 it was 4.19 µM (inactive); with MOLT-4 it was < 0.01 µM (active).

In the case of `Cc1ccc2c(c1)SC1=Nc3sc4cc(C)ccc4[n+]3CN12`, the GI50 in the assay with COLO 205 was 2.7 µM (inactive); with UO-31, 35.6 µM (inactive); with LOX IMVI, 21 µM (inactive); in the assay on UACC-257, 2.18 µM (inactive); in the assay on U-251, 2.58 µM (inactive); in the assay with A498 it was 11.1 µM (inactive). The GI50 with HCT-15 was 40.5 µM; with NCI-H522 it was 1.05 µM (active); in the assay with TK-10, 14.9 µM (inactive); in the assay on MCF7, 4.44 µM (inactive); in the assay with HL-60, 2.07 µM (inactive); in the assay with SNB-19 it was 3.24 µM (inactive). Also, the results for the GI50 in the assay on RPMI-8226, with OVCAR-4 and with MOLT-4 were 1.81 µM (inactive), 2.51 µM (inactive) and < 0.01 µM (active), respectively.

`O=c1[nH][nH]c(=O)n1Cc1ccccc1Cn1c(=O)[nH][nH]c1=O`: the GI50 in the assay on COLO 205, in the assay on MDA-N, in the assay on UO-31, in the assay with KM12, with K562 and in the assay on LOX IMVI was > 100 µM (inactive) in each case. Besides, the GI50 is > 100 µM (inactive) in the assay on UACC-257; > 100 µM (inactive) in the assay on U-251; > 100 µM (inactive) in the assay on A498; greater than 100 µM in the assay on HCT-15; > 100 µM (inactive) in the assay on NCI-H522; > 100 µM (inactive) in the assay on TK-10. Moreover, the GI50 in the assay with HL-60, in the assay with CAKI-1, in the assay on SNB-19, in the assay with RPMI-8226 and in the assay on MOLT-4 was > 100 µM (inactive) throughout.

Regarding `CN(C)c1cccc(OC(=O)NCCCl)c1`, the GI50 in the assay on COLO 205, in the assay with UO-31, in the assay on KM12, in the assay with K562, in the assay on LOX IMVI and in the assay on UACC-257 was > 100 µM (inactive) throughout. Besides, the GI50 is > 100 µM (inactive) in the assay with U-251; > 100 µM (inactive) in the assay on A498; greater than 100 µM in the assay on HCT-15; > 100 µM (inactive) with NCI-H522; > 100 µM (inactive) with MCF7; > 100 µM (inactive) in the assay with HL-60. Moreover, the GI50 with CAKI-1, in the assay on SNB-19, with OVCAR-4 and with MOLT-4 was > 100 µM (inactive) in each case.

In the case of `COc1cc2c(cc1OC)C1C3CCCCC3CCN1CC2` (stereo not drawn), the GI50 in the assay with COLO 205 was 67 µM (inactive); in the assay with KM12 it was > 100 µM (inactive); in the assay on K562, > 100 µM (inactive); with LOX IMVI it was > 100 µM (inactive); with UACC-257 it was > 100 µM (inactive); with U-251, > 100 µM (inactive). For the same molecule, the GI50 in the assay with SR is > 100 µM (inactive); in the assay with A498, > 100 µM (inactive); with HCT-15 it was greater than 100 µM; with NCI-H522, > 100 µM (inactive); in the assay with TK-10, > 100 µM (inactive); in the assay with MCF7 it was 0.36 µM (active). Moreover, the GI50 in the assay on HL-60, in the assay on CAKI-1, with SNB-19, in the assay with OVCAR-4 and with MOLT-4 was > 100 µM (inactive) each time.

For the molecule `O=C(CCN1CCOCC1)C(=Cc1ccccc1)C(=O)CCN1CCOCC1`, the GI50 is 2.51 µM (inactive) in the assay on COLO 205; 12.3 µM (inactive) with UO-31; 5.01 µM (inactive) with KM12; 0.836 µM (active) in the assay on K562; 1.93 µM (inactive) in the assay on LOX IMVI; 1.79 µM (inactive) with UACC-257. The GI50 in the assay on U-251 was 14.1 µM (inactive); in the assay with A498, 17.3 µM (inactive); with HCT-15, 2.1 µM; in the assay with NCI-H522, 1.5 µM (inactive); in the assay with MCF7, 3.19 µM (inactive); in the assay on HL-60, 1.53 µM (inactive). The GI50 in the assay with CAKI-1 was 3.99 µM (inactive); with SNB-19 it was 14.9 µM (inactive); in the assay with RPMI-8226, 1.04 µM (active); with OVCAR-4 it was 5.28 µM (inactive); in the assay with MOLT-4, 1.32 µM (inactive).

For `Cc1c(/C=N/NC(=S)Nc2ccccc2)c(=O)n(-c2ccccc2)n1C`, the GI50 in the assay with COLO 205 is > 100 µM (inactive); with UO-31, 57.5 µM (inactive); with KM12, > 100 µM (inactive); in the assay on K562, 31.2 µM (inactive); with LOX IMVI, > 100 µM (inactive); in the assay with UACC-257 it was > 100 µM (inactive). Further, the GI50 is > 100 µM (inactive) with U-251; > 100 µM (inactive) in the assay with SR; 71.4 µM (inactive) in the assay with A498; 47.5 µM in the assay with HCT-15; > 100 µM (inactive) in the assay on TK-10; > 100 µM (inactive) in the assay on MCF7. For the same molecule, the GI50 was > 100 µM (inactive) in the assay with HL-60; 46.2 µM (inactive) with CAKI-1; > 100 µM (inactive) in the assay with SNB-19; > 100 µM (inactive) with RPMI-8226; > 100 µM (inactive) in the assay on OVCAR-4; > 100 µM (inactive) with MOLT-4.

`C/C(=N\NC(N)=S)c1ccc2c(c1)Sc1ccccc1O2`: the GI50 in the assay with COLO 205 was 1.1 µM (active); in the assay with MDA-N it was 0.373 µM (active); with UO-31 it was 2.88 µM (inactive); with KM12, 4.19 µM (inactive); with K562, 2.36 µM (inactive); in the assay with LOX IMVI, 2.62 µM (inactive). The GI50 in the assay on UACC-257 is 6.14 µM (inactive); in the assay on U-251 it was 2.37 µM (inactive); in the assay on SR, 0.485 µM (active); with A498 it was 2.59 µM (inactive); in the assay with HCT-15 it was 0.593 µM; with TK-10 it was 3.73 µM (inactive). Besides, the GI50 with HL-60 was 3.88 µM (inactive); with CAKI-1 it was 1.04 µM (active); in the assay on SNB-19, 6.55 µM (inactive); in the assay with RPMI-8226, 2.16 µM (inactive); in the assay on OVCAR-4, 2.47 µM (inactive); with MOLT-4, 2.54 µM (inactive).

Take `CCOc1ccc(NCC2CC/C(=C\c3ccc(O)cc3)C2=O)cc1` (stereo not drawn): the GI50 in the assay on COLO 205 was 13.6 µM (inactive); with UO-31, 19.4 µM (inactive); in the assay on KM12, 12.2 µM (inactive); with K562 it was 3.89 µM (inactive); in the assay on LOX IMVI, 12.2 µM (inactive); in the assay on UACC-257, 16.9 µM (inactive). Besides, the GI50 in the assay on U-251 is 16.7 µM (inactive); in the assay with SR it was 2.19 µM (inactive); with A498, 18.2 µM (inactive); in the assay with HCT-15 it was 6.9 µM; with NCI-H522 it was 6.14 µM (inactive); in the assay on TK-10 it was 12.7 µM (inactive). For the same molecule, the GI50 in the assay on MCF7 is 3.61 µM (inactive); in the assay on HL-60, 2.22 µM (inactive); in the assay with CAKI-1, 17.1 µM (inactive); in the assay on SNB-19, 25.5 µM (inactive); with RPMI-8226 it was 4.02 µM (inactive); with OVCAR-4, 17.2 µM (inactive). Besides, the GI50 in the assay with MOLT-4 was 4.17 µM (inactive).

For `CC(C)C[C@H](NC(=O)[C@H](CC(C)C)NC(=O)[C@@H](Cc1c[nH]c2ccccc12)NC(=O)[C@H](Cc1ccccc1)NC(=O)[C@@H](Cc1c[nH]c2ccccc12)NC(=O)[C@H](CCC(N)=O)NC(=O)[C@@H](CCC(N)=O)NC(=O)[C@@H]1CCCN1C(=O)[C@@H](CCCCN)NC(=O)[C@H]1CCCN1C(=O)[C@H](N)CCCN=C(N)N)C(N)=O` (H-[dR][dP][dK]P[dQ]Q[dW]F[dW]LL-NH2), the GI50 in the assay on COLO 205 is > 100 µM (inactive); with UO-31, > 100 µM (inactive); in the assay with KM12, > 100 µM (inactive); in the assay on K562 it was > 100 µM (inactive); in the assay on LOX IMVI, > 100 µM (inactive); with UACC-257, > 48.3 µM (inactive). Also, the GI50 in the assay with U-251 was > 55 µM (inactive); in the assay on A498 it was 32.3 µM (inactive); in the assay with HCT-15, greater than 100 µM; with NCI-H522, > 100 µM (inactive); in the assay on MCF7, > 100 µM (inactive); in the assay on HL-60, > 100 µM (inactive). Also, the GI50 in the assay on SNB-19 was 44.9 µM (inactive); in the assay with RPMI-8226, > 100 µM (inactive); in the assay with OVCAR-4, > 100 µM (inactive); in the assay on MOLT-4 it was > 27.4 µM (inactive).
